tested on: DLD-1 BRCA2−/− cells; experiment: Homologous recombination synthetic lethal inhibition of proliferation, DLD-1 BRCA2-/- (Cell Titre Glo 3D); assay type: cell-based; details: Homo sapiens, DLD-1, DLD-1 BRCA2 −/− cells; mean; read-out: POLQ PD Prolif Lumin BRCA2 −/− mean pIC50 (converted)
How it was run: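 Luminescent Cell Titre Glo 3D readout, taken on day 12 for homologous-recombination-deficient DLD-1 BRCA2−/− and day 7 for the wild-type control, after compound refresh on day 6. Compounds spanned 10 μM to 0.51 nM in three-fold steps; IC50 defined as 50% reduction of average maximum signal.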

**Q.** For CC1(Oc2ncnc3c2nc(-c2ccc(OCCO)cc2Cl)n3Cc2cc(C(F)(F)F)ccn2)CC1 [Example T44, 2-(3-chloro-4-(6-(1-methylcyclopropoxy)-9-((4-(trifluoromethyl)pyridin-2-yl)methyl)-9H-purin-8-yl)phenoxy)ethan-1-ol], which IC50 is on record?
**A.** 251 nM

**Q.** CC1(Oc2ncnc3c2nc(-c2ccc(CC(N)=O)cc2Cl)n3Cc2cccc(Cl)c2)CC1 [Example T45, 2-(3-chloro-4-(9-(3-chlorobenzyl)-6-(1-methylcyclopropoxy)-9H-purin-8-yl)phenyl)acetamide] was tested. Which IC50 did it give?
**A.** 50.1 nM

**Q.** How did the IC50 turn out when CC1(Oc2ncnc3c2nc(-c2ccc(CC(N)=O)cc2Cl)n3CCc2cccc(Br)n2)CC1 [Example T46, 2-(4-(9-(2-(6-bromopyridin-2-yl)ethyl)-6-(1-methylcyclopropoxy)-9H-purin-8-yl)-3-chlorophenyl)acetamide] was run?
**A.** > 10000 nM

**Q.** With Cc1ccnc(Cn2c(-c3ccc(OCC(F)F)cc3Cl)nc3c(OC4(C)CC4)ncnc32)c1 [Example T47, 8-(2-chloro-4-(2,2-difluoroethoxy)phenyl)-6-(1-methylcyclopropoxy)-9-((4-methylpyridin-2-yl)methyl)-9H-purine] as the compound, how does the IC50 read?
**A.** 200 nM

**Q.** For CC1(Oc2ncnc3c2nc(-c2ccc(CC(N)=O)cc2Cl)n3Cc2ccccc2)CC1 [Example T48, 2-(4-(9-benzyl-6-(1-methylcyclopropoxy)-9H-purin-8-yl)-3-chlorophenyl)acetamide], which IC50 is on record?
**A.** 200 nM

**Q.** Which IC50 does the source give for CNC(=O)COc1ccc(-c2nc3c(OC4(C)CC4)ncnc3n2Cc2cc(Cl)ccn2)c(Cl)c1 [Example T51, 2-(3-chloro-4-(9-((4-chloropyridin-2-yl)methyl)-6-(1-methylcyclopropoxy)-9H-purin-8-yl)phenoxy)-N-methylacetamide] here?
**A.** 158 nM

**Q.** For CNC(=O)c1ccc(Cl)c(-c2nc3c(OC4(C)CC4)ncnc3n2Cc2cc(C)ccn2)c1 [Example T54, 4-chloro-N-methyl-3-(6-(1-methylcyclopropoxy)-9-((4-methylpyridin-2-yl)methyl)-9H-purin-8-yl)benzamide], which IC50 is on record?
**A.** > 10000 nM

**Q.** For CNC(=O)c1cccc(-c2nc3c(OC4(C)CC4)ncnc3n2Cc2cc(C)ccn2)c1Cl [Example T55, 2-chloro-N-methyl-3-(6-(1-methylcyclopropoxy)-9-((4-methylpyridin-2-yl)methyl)-9H-purin-8-yl)benzamide], which IC50 is on record?
**A.** 631 nM

**Q.** For Cc1ccnc(Cn2c(-c3cc(CC(N)=O)ccc3Cl)nc3c(OC4(C)CC4)ncnc32)c1 [Example T57, 2-(4-chloro-3-(6-(1-methylcyclopropoxy)-9-((4-methylpyridin-2-yl)methyl)-9H-purin-8-yl)phenyl)acetamide], which IC50 is on record?
**A.** > 10000 nM

**Q.** For Cc1cc(Cn2c(-c3ccc(CC(N)=O)cc3Cl)nc3c(OC4(C)CC4)ncnc32)ccn1 [Example T58, 2-(3-chloro-4-(6-(1-methylcyclopropoxy)-9-((2-methylpyridin-4-yl)methyl)-9H-purin-8-yl)phenyl)acetamide], which IC50 is on record?
**A.** > 10000 nM

**Q.** Which IC50 does the source give for Cc1cccc(Cn2c(-c3ccc(CC(N)=O)cc3Cl)nc3c(OC4(C)CC4)ncnc32)n1 [Example T59, 2-(3-chloro-4-(6-(1-methylcyclopropoxy)-9-((6-methylpyridin-2-yl)methyl)-9H-purin-8-yl)phenyl)acetamide] here?
**A.** 2510 nM

**Q.** How did the IC50 turn out when Cc1ncccc1Cn1c(-c2ccc(CC(N)=O)cc2Cl)nc2c(OC3(C)CC3)ncnc21 [Example T60, 2-(3-chloro-4-(6-(1-methylcyclopropoxy)-9-((2-methylpyridin-3-yl)methyl)-9H-purin-8-yl)phenyl)acetamide] was run?
**A.** 10000 nM

**Q.** For Cc1ccnc(Cn2c(-c3ccc(OCC(N)=O)cc3Cl)nc3c(OC4(C)CC4)ncnc32)c1 [Example T61, 2-(3-chloro-4-(6-(1-methylcyclopropoxy)-9-((4-methylpyridin-2-yl)methyl)-9H-purin-8-yl)phenoxy)acetamide], which IC50 is on record?
**A.** 251 nM

**Q.** How did the IC50 turn out when COC(=O)Nc1ccc(-c2nc3c(OC4(C)CC4)ncnc3n2Cc2cc(C)ccn2)c(Cl)c1 [Example T62, methyl (3-chloro-4-(6-(1-methylcyclopropoxy)-9-((4-methylpyridin-2-yl)methyl)-9H-purin-8-yl)phenyl)carbamate] was run?
**A.** 251 nM

**Q.** How did the IC50 turn out when COc1ccnc(Cn2c(-c3ccc(CC(N)=O)cc3Cl)nc3c(OC4(C)CC4)ncnc32)c1 [Example T63, 2-(3-chloro-4-(9-((4-methoxypyridin-2-yl)methyl)-6-(1-methylcyclopropoxy)-9H-purin-8-yl)phenyl)acetamide] was run?
**A.** 1000 nM

**Q.** For Cc1ccnc(Cn2c(-c3ccc(CCO)cc3Cl)nc3c(OC4(C)CC4)ncnc32)c1 [Example T65, 2-(3-chloro-4-(6-(1-methylcyclopropoxy)-9-((4-methylpyridin-2-yl)methyl)-9H-purin-8-yl)phenyl)ethan-1-ol], which IC50 is on record?
**A.** 251 nM

**Q.** How did the IC50 turn out when CNC(=O)Nc1ccc(-c2nc3c(OC4(C)CC4)ncnc3n2Cc2cc(C)ccn2)c(Cl)c1 [Example T66, 1-(3-chloro-4-(6-(1-methylcyclopropoxy)-9-((4-methylpyridin-2-yl)methyl)-9H-purin-8-yl)phenyl)-3-methylurea] was run?
**A.** 398 nM

**Q.** CC1(Oc2ncnc3c2nc(-c2ccc(CC(N)=O)cc2Cl)n3Cc2noc(C(C)(C)C)n2)CC1 [Example T71, 2-(4-(9-((5-(tert-butyl)-1,2,4-oxadiazol-3-yl)methyl)-6-(1-methylcyclopropoxy)-9H-purin-8-yl)-3-chlorophenyl)acetamide] was tested. Which IC50 did it give?
**A.** 7940 nM

**Q.** For CC1(Oc2ncnc3c2nc(-c2ccc(CC(N)=O)cc2Cl)n3Cc2cc(C#N)ccc2F)CC1 [Example T77, 2-(3-chloro-4-(9-(5-cyano-2-fluorobenzyl)-6-(1-methylcyclopropoxy)-9H-purin-8-yl)phenyl)acetamide], which IC50 is on record?
**A.** 158 nM

**Q.** For CC1(Oc2ncnc3c2nc(-c2ccc(CC(N)=O)cc2Cl)n3Cc2ccc(F)cc2C#N)CC1 [Example T78, 2-(3-chloro-4-(9-(2-cyano-4-fluorobenzyl)-6-(1-methylcyclopropoxy)-9H-purin-8-yl)phenyl)acetamide], which IC50 is on record?
**A.** 5010 nM

**Q.** How did the IC50 turn out when CC1(Oc2ncnc3c2nc(-c2ccc(CC(N)=O)cc2Cl)n3Cc2cc(F)ccc2C#N)CC1 [Example T79, 2-(3-chloro-4-(9-(2-cyano-5-fluorobenzyl)-6-(1-methylcyclopropoxy)-9H-purin-8-yl)phenyl)acetamide] was run?
**A.** 158 nM

**Q.** CC1(Oc2ncnc3c2nc(-c2ccc(CC(N)=O)cc2Cl)n3Cc2cccc(C#N)c2)CC1 [Example T81, 2-(3-chloro-4-(9-(3-cyanobenzyl)-6-(1-methylcyclopropoxy)-9H-purin-8-yl)phenyl)acetamide] was tested. Which IC50 did it give?
**A.** 200 nM

**Q.** For CC1(Oc2ncnc3c2nc(-c2ccc(CC(N)=O)cc2Cl)n3Cc2ccccc2C#N)CC1 [Example T82, 2-(3-chloro-4-(9-(2-cyanobenzyl)-6-(1-methylcyclopropoxy)-9H-purin-8-yl)phenyl)acetamide], which IC50 is on record?
**A.** 316 nM

**Q.** Which IC50 does the source give for CC1(Oc2ncnc3c2nc(-c2ccc(CC(N)=O)cc2Cl)n3Cc2ccc(C#N)cc2)CC1 [Example T83, 2-(3-chloro-4-(9-(4-cyanobenzyl)-6-(1-methylcyclopropoxy)-9H-purin-8-yl)phenyl)acetamide] here?
**A.** 7940 nM

**Q.** CC1(Oc2ncnc3c2nc(-c2ccc(OCCC(=O)O)cc2Cl)n3Cc2ccc(Cl)c(Cl)c2)CC1 [Example T84, 3-(3-chloro-4-(9-(3,4-dichlorobenzyl)-6-(1-methylcyclopropoxy)-9H-purin-8-yl)phenoxy)propanoic acid] was tested. Which IC50 did it give?
**A.** 2000 nM

**Q.** With Cc1ccnc(Cn2c(-c3ccc(C(=O)NCC(F)(F)F)cc3Cl)nc3c(OC4(C)CC4)ncnc32)c1 [Example T86, 3-chloro-4-(6-(1-methylcyclopropoxy)-9-((4-methylpyridin-2-yl)methyl)-9H-purin-8-yl)-N-(2,2,2-trifluoroethyl)benzamide] as the compound, how does the IC50 read?
**A.** 501 nM

**Q.** Which IC50 does the source give for CC1(Oc2ncnc3c2nc(-c2ccc(OCCC(=O)O)cc2Cl)n3Cc2ccccc2Cl)CC1 [Example T88, 3-(3-chloro-4-(9-(2-chlorobenzyl)-6-(1-methylcyclopropoxy)-9H-purin-8-yl)phenoxy)propanoic acid] here?
**A.** 794 nM

**Q.** Which IC50 does the source give for C[C@H](Oc1cccc(-c2nc3c(OC4(C)CC4)ncnc3n2Cc2cccc(Cl)c2)c1Cl)C(=O)O [Example T90, (S)-2-(2-chloro-3-(9-(3-chlorobenzyl)-6-(1-methylcyclopropoxy)-9H-purin-8-yl)phenoxy)propanoic acid] here?
**A.** 2000 nM

**Q.** How did the IC50 turn out when Cc1ccnc(Cn2c(-c3ccc(C(=O)NCC(F)F)cc3Cl)nc3c(OC4(C)CC4)ncnc32)c1 [Example T93, 3-chloro-N-(2,2-difluoroethyl)-4-(6-(1-methylcyclopropoxy)-9-((4-methylpyridin-2-yl)methyl)-9H-purin-8-yl)benzamide] was run?
**A.** 316 nM

**Q.** With CC1(Oc2ncnc3c2nc(-c2ccc(OCCCO)cc2Cl)n3Cc2cc(C(F)(F)F)ccn2)CC1 [Example T94, 3-(3-chloro-4-(6-(1-methylcyclopropoxy)-9-((4-(trifluoromethyl)pyridin-2-yl)methyl)-9H-purin-8-yl)phenoxy)propan-1-ol] as the compound, how does the IC50 read?
**A.** 200 nM

**Q.** Cc1ccnc(Cn2c(-c3ccc(N4CCC4=O)cc3Cl)nc3c(OC4(C)CC4)ncnc32)c1 [Example T95, 1-(3-chloro-4-(6-(1-methylcyclopropoxy)-9-((4-methylpyridin-2-yl)methyl)-9H-purin-8-yl)phenyl)azetidin-2-one] was tested. Which IC50 did it give?
**A.** 200 nM

**Q.** Cc1ccnc(Cn2c(-c3ccc(N4CCOC4=O)cc3Cl)nc3c(OC4(C)CC4)ncnc32)c1 [Example T96, 3-(3-chloro-4-(6-(1-methylcyclopropoxy)-9-((4-methylpyridin-2-yl)methyl)-9H-purin-8-yl)phenyl)oxazolidin-2-one] was tested. Which IC50 did it give?
**A.** 100 nM

**Q.** Which IC50 does the source give for CC1(Oc2ncnc3c2nc(-c2ccc(NCCC(=O)O)cc2Cl)n3Cc2cccc(Cl)c2)CC1 [Example T97, 3-((3-chloro-4-(9-(3-chlorobenzyl)-6-(1-methylcyclopropoxy)-9H-purin-8-yl)phenyl)amino)propanoic acid] here?
**A.** 1260 nM

**Q.** Which IC50 does the source give for Cc1ccnc(Cn2c(-c3ccc(OCC(F)(F)CO)cc3Cl)nc3c(OC4(C)CC4)ncnc32)c1 [Example T98, 3-(3-chloro-4-(6-(1-methylcyclopropoxy)-9-((4-methylpyridin-2-yl)methyl)-9H-purin-8-yl)phenoxy)-2,2-difluoropropan-1-ol] here?
**A.** 100 nM
